From patent US9980943B2, “Methods of treating muscular dystrophy” (BOARD OF REGENTS OF THE NEVADA SYSTEM OF HIGHER EDUCATION, …, priority 2013, dated 2018) come the findings set out here.

Common to all, as to format: cell-based, mouse
For test [1], the system named is α7 integrin (LacZ reporter in α7βgal+/− myoblasts). The experiment in a line: Myoblast α7+/LacZ integrin FDG assay (Burkin assay in myoblasts, 96-well). The settings on record: 96-well; for Burkin Assay in Myoblasts, value relative to DMSO: SU9516 analogs, N=3-6; for Burkin Assay in Myoblasts, signal relative to DMSO: α7+/LacZ myoblasts.
Test [2] deals with α7 integrin (LacZ reporter in α7+/LacZ myotubes). Briefly: Myotube α7 integrin FDG assay (Burkin assay in myotubes, 96-well). The settings on record: for Burkin Assay in Myotubes, value relative to DMSO: SU9516 analogs, 96-well, N=3-6.
Test [3] deals with β-galactosidase in CMV-LacZ C2C12 myoblasts. Briefly: CMV-LacZ secondary screen in C2C12 myoblasts (β-Gal stabilizing assay). The note with it: for CMV-LACZ in Myoblasts, value relative to DMSO: SU9516 analogs, C2C12 CMV-LacZ, N=2; for CMV-LACZ in Myoblasts (β-galactosidase activity relative to DMSO): CMV-LacZ C2C12 myoblasts. Summed up: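 Dose-response runs at 0.5–40 μM (0.5, 1, 5, 10, 20, 40 μM; N=2 per point) used a clonal C2C12 line carrying CMV-LacZ. Cells were assayed as myoblasts or as differentiated myotubes, and β-galactosidase levels were read with the FDG fluorogenic substrate.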

Test [4] has as its system β-galactosidase in CMV-LacZ C2C12 myotubes. Briefly: CMV-LacZ secondary screen in C2C12 myotubes (β-Gal stabilizing assay). The note with it: for CMV-LACZ in Myotubes, value relative to DMSO: SU9516 analogs, C2C12 CMV-LacZ, N=2; for CMV-LACZ in Myotubes, signal relative to DMSO: C2C12 CMV-LacZ myotubes, fold relative to DMSO. Summed up: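 CMV-LacZ C2C12 line (clonal, FDG-screened); myoblasts/myotubes dosed 0.5–40 μM (0.5, 1, 5, 10, 20, 40 μM); n=2 per point; β-gal stabilization read-out.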

Regarding `COc1ccc(C(=O)/C=C2/C(=O)Nc3ccccc32)cc1` [MLS001163848-01], the “Burkin Assay in Myoblasts, value relative to DMSO” value in test [1] (0.5 uM) was 1.002; in test [1] (1 uM), 0.8906; in test [1] (5 uM), 0.4854; in test [1] (10 uM) it was 0.3141; in test [1] (20 uM), 0.297; in test [1] (40 uM), 0.1444. For the same molecule, the “Burkin Assay in Myotubes, value relative to DMSO” value in test [2] (0.5 uM) is listed as 1.0964; in test [2] (1 uM), 1.045; in test [2] (5 uM), 0.9587; in test [2] (10 uM), 0.7469; in test [2] (20 uM), 0.6878; in test [2] (40 uM), 0.4876. Also, the “CMV-LACZ in Myoblasts, value relative to DMSO” value in test [3] (0.5 uM) is 1.1146; in test [3] (1 uM) it was 0.9620; in test [3] (5 uM), 0.9336; in test [3] (10 uM) it was 1.0762; in test [3] (20 uM), 2.1030; in test [3] (40 uM), 2.2215. For the same molecule, the “CMV-LACZ in Myotubes, value relative to DMSO” value is reported as 1.2133 in test [4] (0.5 uM); 0.9638 in test [4] (1 uM); 1.1937 in test [4] (5 uM); 4.2586 in test [4] (10 uM); 6.7729 in test [4] (20 uM); 6.8624 in test [4] (40 uM).
As to `Cc1[nH]c(C=C2C(=O)Nc3ccccc32)c(C)c1CCC(=O)O` [NCGC00241113-01], the “Burkin Assay in Myoblasts, value relative to DMSO” value was 1.011 in test [1] (0.5 uM); 1.057 in test [1] (1 uM); 0.9062 in test [1] (5 uM); 0.8662 in test [1] (10 uM); 0.9594 in test [1] (20 uM); 0.9168 in test [1] (40 uM). The “Burkin Assay in Myotubes, value relative to DMSO” value is recorded as 1.078 in test [2] (0.5 uM); 1.105 in test [2] (1 uM); 0.8489 in test [2] (5 uM); 0.7678 in test [2] (10 uM); 0.7458 in test [2] (20 uM); 0.6312 in test [2] (40 uM). In addition, the “CMV-LACZ in Myoblasts, value relative to DMSO” value in test [3] (0.5 uM) was found to be 1.4142; in test [3] (5 uM) it was 1.1634; in test [3] (10 uM), 1.1352; in test [3] (20 uM), 2.7827; in test [3] (40 uM) it was 3.3097. In addition, the “CMV-LACZ in Myotubes, value relative to DMSO” value in test [4] (0.5 uM) stood at 0.8627; in test [4] (1 uM) it was 1.3227; in test [4] (5 uM), 0.9410; in test [4] (10 uM), 1.0724; in test [4] (20 uM), 0.9790; in test [4] (40 uM), 0.9520.
Turning to `c1ccc(-c2cn3c4c(sc3n2)CCCC4)cc1` [MLS002636056-01], the “Burkin Assay in Myoblasts, signal relative to DMSO” value in test [1] (0.5 uM) is 1.157; in test [1] (1 uM), 1.066; in test [1] (5 uM) it was 1.037; in test [1] (10 uM) it was 1.224; in test [1] (20 uM), 0.9377; in test [1] (40 uM) it was 0.8203. In addition, the “Burkin Assay in Myotubes, α7 integrin LacZ reporter signal relative to DMSO” value was found to be 0.9619 in test [2] (0.5 uM); 1.089 in test [2] (1 uM); 0.9203 in test [2] (5 uM); 1.027 in test [2] (10 uM); 0.9045 in test [2] (20 uM); 1.167 in test [2] (40 uM). Also, the “CMV-LACZ in Myoblasts (β-galactosidase activity relative to DMSO)” value in test [3] (0.5 uM) turned out to be 0.9392; in test [3] (1 uM) it was 0.9021; in test [3] (5 uM), 1.0394; in test [3] (10 uM), 1.2571; in test [3] (20 uM), 1.1173; in test [3] (40 uM), 0.8270. For the same molecule, the “CMV-LACZ in Myotubes, signal relative to DMSO” value in test [4] (0.5 uM) came to 0.9855; in test [4] (1 uM), 1.2636; in test [4] (5 uM), 1.0269; in test [4] (10 uM) it was 1.1613; in test [4] (20 uM), 1.4090; in test [4] (40 uM) it was 1.1160.
As to `Cc1ccc(/C=C2\C(=O)Nc3ccccc32)o1` [MLS000391588-01], the “Burkin Assay in Myoblasts, value relative to DMSO” value in test [1] (0.5 uM) was 1.07; in test [1] (1 uM), 1.015; in test [1] (5 uM), 0.9119; in test [1] (10 uM) it was 0.8176; in test [1] (20 uM) it was 0.7804; in test [1] (40 uM), 0.3005. Besides, the “Burkin Assay in Myotubes, value relative to DMSO” value in test [2] (0.5 uM) amounted to 1.073; in test [2] (1 uM), 0.9563; in test [2] (5 uM), 0.8994; in test [2] (10 uM), 0.9356; in test [2] (20 uM) it was 0.7631; in test [2] (40 uM), 0.664. Also, the “CMV-LACZ in Myoblasts, value relative to DMSO” value is 1.0009 in test [3] (0.5 uM); 0.7411 in test [3] (1 uM); 0.9885 in test [3] (5 uM); 1.0968 in test [3] (10 uM); 1.4307 in test [3] (20 uM); 1.1119 in test [3] (40 uM). Further, the “CMV-LACZ in Myotubes, value relative to DMSO” value came to 0.8400 in test [4] (0.5 uM); 1.0010 in test [4] (1 uM); 1.0019 in test [4] (5 uM); 0.9740 in test [4] (10 uM); 0.9212 in test [4] (20 uM); 0.9094 in test [4] (40 uM).
Take `Cc1ccccc1-n1c(Cc2cccs2)n[nH]c1=S` [MLS000568234-01]: the “Burkin Assay in Myoblasts, signal relative to DMSO” value turned out to be 1.094 in test [1] (0.5 uM); 1.032 in test [1] (1 uM); 1.136 in test [1] (5 uM); 1.373 in test [1] (10 uM); 1.106 in test [1] (20 uM); 1.011 in test [1] (40 uM). Also, the “Burkin Assay in Myotubes, α7 integrin LacZ reporter signal relative to DMSO” value is 1.08 in test [2] (0.5 uM); 1.167 in test [2] (1 uM); 0.9642 in test [2] (5 uM); 1.09 in test [2] (10 uM); 0.8694 in test [2] (20 uM); 0.9705 in test [2] (40 uM). Moreover, the “CMV-LACZ in Myoblasts (β-galactosidase activity relative to DMSO)” value came out at 0.9556 in test [3] (0.5 uM); 0.9372 in test [3] (1 uM); 0.9043 in test [3] (5 uM); 0.9894 in test [3] (10 uM); 0.8819 in test [3] (20 uM); 0.7322 in test [3] (40 uM). In addition, the “CMV-LACZ in Myotubes, signal relative to DMSO” value in test [4] (0.5 uM) turned out to be 1.3844; in test [4] (1 uM), 1.2622; in test [4] (5 uM), 1.0764; in test [4] (10 uM), 0.9074; in test [4] (20 uM) it was 0.9918; in test [4] (40 uM), 0.9141.
